Reference: PubChem BioAssay (NCI)
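Values below derive from 48-hour exposures of cells grown in 96-well plates, with endpoints linearly interpolated between the two concentrations bracketing the appropriate inhibition level. The concentration for full growth arrest is given as TGI.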

Assays:
Experiment in all cases: NCI anticancer screen, dose series, 48 h
NCI-H226 lung = test system: NCI-H226 lung
HOP-18 NSCLC = test system: HOP-18 NSCLC
UACC-62 melanoma = test system: UACC-62 melanoma
HS 578T breast = test system: HS 578T breast
NCI/ADR-RES ovarian = test system: NCI/ADR-RES ovarian
HCT-15 colon = test system: HCT-15 colon
MDA-MB-231 breast = test system: MDA-MB-231 breast
SK-OV-3 ovarian = test system: SK-OV-3 ovarian
DMS 114 small cell lung = test system: DMS 114 small cell lung
COLO 205 colon = test system: COLO 205 colon
786-0 renal = test system: 786-0 renal
HOP-62 NSCLC = test system: HOP-62 NSCLC
MOLT-4 leukemia = test system: MOLT-4 leukemia
SK-MEL-2 melanoma = test system: SK-MEL-2 melanoma
XF 498 CNS = test system: XF 498 CNS
RPMI-8226 leukemia = test system: RPMI-8226 leukemia
HL-60(TB) leukemia = test system: HL-60(TB) leukemia
RXF 393 renal = test system: RXF 393 renal
SNB-75 CNS = test system: SNB-75 CNS
OVCAR-8 ovarian = test system: OVCAR-8 ovarian
UO-31 renal = test system: UO-31 renal
DLD-1 colon = test system: DLD-1 colon
SNB-19 CNS = test system: SNB-19 CNS
SF-268 CNS = test system: SF-268 CNS
MCF7 breast = test system: MCF7 breast
EKVX NSCLC = test system: EKVX NSCLC
IGROV1 ovarian = test system: IGROV1 ovarian
MDA-MB-435 = test system: MDA-MB-435
SR leukemia = test system: SR leukemia
BT-549 breast = test system: BT-549 breast
NCI-H23 lung = test system: NCI-H23 lung
M19-MEL melanoma = test system: M19-MEL melanoma
OVCAR-4 ovarian = test system: OVCAR-4 ovarian
DU-145 prostate = test system: DU-145 prostate
HOP-92 NSCLC = test system: HOP-92 NSCLC
T-47D breast = test system: T-47D breast
LOX IMVI melanoma = test system: LOX IMVI melanoma
HCC-2998 colon = test system: HCC-2998 colon
NCI-H460 lung = test system: NCI-H460 lung
M14 melanoma = test system: M14 melanoma
SK-MEL-5 melanoma = test system: SK-MEL-5 melanoma
HCT-116 colon = test system: HCT-116 colon
DMS 273 small cell lung = test system: DMS 273 small cell lung
MDA-N = test system: MDA-N
KM12 colon = test system: KM12 colon
SW-620 colon = test system: SW-620 colon
SNB-78 CNS = test system: SNB-78 CNS
SF-539 CNS = test system: SF-539 CNS
CAKI-1 renal = test system: CAKI-1 renal
ACHN renal = test system: ACHN renal
NCI-H522 lung = test system: NCI-H522 lung
A549 NSCLC = test system: A549 NSCLC
SK-MEL-28 melanoma = test system: SK-MEL-28 melanoma
U251 CNS = test system: U251 CNS
KM20L2 colon = test system: KM20L2 colon
TK-10 renal = test system: TK-10 renal
SF-295 CNS = test system: SF-295 CNS
HT29 colon = test system: HT29 colon
A498 renal = test system: A498 renal
UACC-257 melanoma = test system: UACC-257 melanoma
OVCAR-5 ovarian = test system: OVCAR-5 ovarian
OVCAR-3 ovarian = test system: OVCAR-3 ovarian
CCRF-CEM leukemia = test system: CCRF-CEM leukemia
PC-3 prostate = test system: PC-3 prostate
K-562 leukemia = test system: K-562 leukemia
MALME-3M melanoma = test system: MALME-3M melanoma
SN12C renal = test system: SN12C renal
LXFL 529 NSCLC = test system: LXFL 529 NSCLC
RXF-631 renal = test system: RXF-631 renal

Measured: TGI

COc1ccc(CC2NCCc3cc(OC)c(OC)cc32)cc1Br (configuration not stated)
31 µM: M14 melanoma
> 71.4 µM: NCI-H460 lung
61.7 µM: HOP-92 NSCLC
74.6 µM: SR leukemia
61.6 µM: SK-MEL-2 melanoma
50.2 µM: RPMI-8226 leukemia
57.9 µM: HT29 colon
52.9 µM: DMS 114 small cell lung
34.3 µM: MALME-3M melanoma
73.3 µM: MOLT-4 leukemia
> 77.7 µM: OVCAR-5 ovarian
47.1 µM: LOX IMVI melanoma
45.6 µM: UACC-257 melanoma | K-562 leukemia
47 µM: XF 498 CNS
> 77.5 µM: UACC-62 melanoma
57.5 µM: DMS 273 small cell lung
> 70.5 µM: SW-620 colon
19.9 µM: SK-MEL-5 melanoma
59.1 µM: RXF 393 renal
57.3 µM: MDA-MB-231 breast
28.1 µM: HL-60(TB) leukemia
86.7 µM: SF-295 CNS
36.9 µM: HCT-116 colon
32.6 µM: COLO 205 colon
41.5 µM: M19-MEL melanoma
85.7 µM: NCI-H23 lung
33.7 µM: SK-MEL-28 melanoma
> 85.3 µM: CCRF-CEM leukemia
34.6 µM: HCC-2998 colon
> 89.8 µM: TK-10 renal
73.9 µM: NCI-H226 lung
60 µM: MDA-MB-435
> 83.2 µM: SNB-75 CNS
> 79.1 µM: A498 renal
63.1 µM: T-47D breast
not listed: RXF-631 renal
> 100 µM: all other assays above

C=CCc1ccc(Oc2cc(CC=C)c3c(c2O)O[C@@H](CO)[C@H]3c2ccc(O)c(-c3cc(CC=C)ccc3O)c2)cc1
55.3 µM: HL-60(TB) leukemia
46.9 µM: SR leukemia
49.1 µM: HT29 colon
93.5 µM: KM20L2 colon
85 µM: UACC-62 melanoma
54.6 µM: DMS 114 small cell lung
90.7 µM: LXFL 529 NSCLC
72.8 µM: IGROV1 ovarian
65.7 µM: SK-MEL-2 melanoma
30.9 µM: LOX IMVI melanoma
51.8 µM: U251 CNS
46.6 µM: CCRF-CEM leukemia
32.6 µM: NCI-H522 lung
not listed: HS 578T breast | NCI/ADR-RES ovarian | MDA-MB-231 breast | MOLT-4 leukemia | XF 498 CNS | MCF7 breast | MDA-MB-435 | BT-549 breast | DU-145 prostate | T-47D breast | MDA-N | PC-3 prostate | RXF-631 renal
> 100 µM: all other assays above

O=C1CCCC[C@H]1[C@H]1CCC[C@@H]([C@H]2CCCCC2=O)C1=O
not listed: HS 578T breast | NCI/ADR-RES ovarian | MDA-MB-231 breast | DMS 114 small cell lung | OVCAR-8 ovarian | MCF7 breast | MDA-MB-435 | BT-549 breast | DU-145 prostate | T-47D breast | MDA-N | SNB-78 CNS | PC-3 prostate
> 100 µM: all other assays above

O=C(NCO)NCOCn1c(=O)n(CO)c(=O)n(CO)c1=O
36.8 µM: UACC-62 melanoma
37.3 µM: LOX IMVI melanoma
> 94.8 µM: NCI-H460 lung
99.4 µM: UACC-257 melanoma
23.6 µM: CCRF-CEM leukemia
99.3 µM: DMS 114 small cell lung
47.5 µM: HL-60(TB) leukemia
56.4 µM: SW-620 colon
> 66.3 µM: M19-MEL melanoma
42.8 µM: LXFL 529 NSCLC
33.8 µM: SK-MEL-2 melanoma
> 79.2 µM: K-562 leukemia
> 94.9 µM: KM20L2 colon
36.3 µM: NCI-H23 lung
81.9 µM: SR leukemia
> 74 µM: MALME-3M melanoma
30.8 µM: RXF 393 renal
> 71.8 µM: COLO 205 colon
64.4 µM: DLD-1 colon
55.5 µM: XF 498 CNS
31.7 µM: M14 melanoma
45.1 µM: SK-MEL-28 melanoma
> 73.9 µM: SNB-78 CNS
> 31.6 µM: SNB-19 CNS
60.9 µM: HCT-15 colon
> 83 µM: SK-MEL-5 melanoma
96.2 µM: HCT-116 colon
99.7 µM: HT29 colon
> 77 µM: OVCAR-4 ovarian
> 80.8 µM: SF-268 CNS
> 65.9 µM: MOLT-4 leukemia
68.4 µM: RPMI-8226 leukemia
> 62.8 µM: KM12 colon
not listed: HS 578T breast | NCI/ADR-RES ovarian | MDA-MB-231 breast | MCF7 breast | MDA-MB-435 | BT-549 breast | DU-145 prostate | HOP-92 NSCLC | T-47D breast | DMS 273 small cell lung | MDA-N | NCI-H522 lung | PC-3 prostate
> 100 µM: all other assays above

COc1ccc2nc(NC(=O)C(=O)C(C#N)c3ccc([N+](=O)[O-])cc3)sc2c1 (configuration not stated)
not listed: HS 578T breast | NCI/ADR-RES ovarian | MDA-MB-231 breast | XF 498 CNS | HL-60(TB) leukemia | MCF7 breast | MDA-MB-435 | SR leukemia | BT-549 breast | DU-145 prostate | T-47D breast | MDA-N | A498 renal | CCRF-CEM leukemia | PC-3 prostate | RXF-631 renal
> 100 µM: all other assays above

c1ccc(C2Nc3ccccc3C3OCCCC23)cc1 (configuration not stated)
47.7 µM: KM20L2 colon
31.5 µM: SK-MEL-5 melanoma | SF-539 CNS
82.2 µM: SK-MEL-2 melanoma
44.3 µM: OVCAR-8 ovarian
58.5 µM: UACC-62 melanoma
68.4 µM: EKVX NSCLC
70.5 µM: HOP-92 NSCLC
87.3 µM: HCT-116 colon
37.4 µM: SF-295 CNS
42.3 µM: CAKI-1 renal
38.3 µM: U251 CNS
62.4 µM: DMS 114 small cell lung
70.2 µM: IGROV1 ovarian
35.3 µM: LOX IMVI melanoma
84.8 µM: CCRF-CEM leukemia
50.4 µM: RXF 393 renal
97.1 µM: DMS 273 small cell lung
60.2 µM: RPMI-8226 leukemia
68.3 µM: NCI-H226 lung
71.9 µM: A498 renal
51.1 µM: HL-60(TB) leukemia
not listed: HOP-18 NSCLC | HS 578T breast | NCI/ADR-RES ovarian | MDA-MB-231 breast | SK-OV-3 ovarian | HOP-62 NSCLC | SNB-75 CNS | MCF7 breast | MDA-MB-435 | SR leukemia | BT-549 breast | DU-145 prostate | T-47D breast | NCI-H460 lung | M14 melanoma | MDA-N | NCI-H522 lung | SK-MEL-28 melanoma | TK-10 renal | HT29 colon | OVCAR-3 ovarian | PC-3 prostate
> 100 µM: all other assays above

O=c1c(C(c2ccc(Cl)cc2)c2c(O)c3ccccc3n(-c3ccccc3)c2=O)c(O)c2ccccc2n1-c1ccccc1
69.4 µM: XF 498 CNS | RPMI-8226 leukemia
98.5 µM: ACHN renal
91.1 µM: EKVX NSCLC
86.1 µM: SK-MEL-2 melanoma
60.1 µM: MALME-3M melanoma
not listed: HS 578T breast | NCI/ADR-RES ovarian | MDA-MB-231 breast | 786-0 renal | HL-60(TB) leukemia | SNB-75 CNS | MCF7 breast | MDA-MB-435 | BT-549 breast | DU-145 prostate | T-47D breast | NCI-H460 lung | M14 melanoma | MDA-N | HT29 colon | A498 renal | UACC-257 melanoma | PC-3 prostate
> 100 µM: all other assays above
